A short description of data set [1]: Hygroscopicity test / Dynamic Vapor Sorption (DVS) of hydrochloride salt crystal forms. The settings on record: for Water absorbed eventually: 90% RH. The class given is physicochemical. As for the experimental part:
Evidence of a hydrochloride hydrate was not observed after the hygroscopicity test.
Dynamic Vapor Sorption (DVS) was done at 25-26° C.

Data set [2] can be described thus: Hygroscopicity noted on isolation of the hydrochloride salt. In kind it is physicochemical. The settings on record: salt precipitated from DCM with HCl in Et2O. As for the experimental part: 5-(4-acetyl-[1,4]diazepan-1-yl)-pentanoic acid [5-(4-methoxy-phenyl)-1H-pyrazol-3-yl]-amide (1.05 g, 2.54 mmol) was dissolved in a minimum amount of DCM (5 mL) and cooled to 0° C. HCl (2.0 M in Et20, 1.4 mL, 2.89 mmol) was added and the mixture stirred at rt until precipitation of the salt was complete (about 10 min.). The solid was filtered, washed with Et2O several times, and dried in a dessicator to yield 1.09 g of the hydrochloride salt (2.42 mmol, 95% yield). […] MS (ES+): 414.26 (M+H)^+.

“Also recorded” adds a separate entry of the source. Structures can show the parent of a compound that is named as a salt. Where two headings read alike, the source gives them in different places.

Consider `COc1ccc(-c2cc(NC(=O)CCCCN3CCCN(C(C)=O)CC3)[nH]n2)cc1` [Form II, 5-(4-acetyl-1,4-diazepan-1-yl)-N-(5-(4-methoxyphenyl)-1H-pyrazol-3-yl)pentanamide hydrochloric salt Form II], for which the “Hygroscopicity (in words)” value in data set [1] was “non-hygroscopic”. In addition, in data set [1] (DVS at 25-26° C.), the Water absorbed eventually entry was “up to 7%” and the “Relative humidity (RH) at which the form picks up moisture” value is reported as “about 20%”. Also, the “Water held at low RH” value in data set [1] (RH 0%, DVS at 25-26° C.) is 2%. Besides, in data set [1] (listed as Crystal Form II), the “Water at RH 50%” value is listed as “hygroscopic (5%” and the “Hygroscopicity (in words), Crystal Form Table” value is on record as “Somewhat”.
With `COc1ccc(-c2cc(NC(=O)CCCCN3CCCN(C(C)=O)CC3)[nH]n2)cc1` [Form III, 5-(4-Acetyl-[1,4]diazepan-1-yl)-pentanoic acid [5-(4-methoxy-phenyl)-2H-pyrazol-3-yl]-amide], the “Hygroscopicity (in words), Crystal Form Table” value in data set [1] (listed as Crystal Form III) was “Hygroscopic”.
One may read the melting point as the temperature of the solid-liquid transition. As to `COc1ccc(-c2cc(NC(=O)CCCCN3CCCN(C(C)=O)CC3)n[nH]2)cc1.Cl` [Compound I, 5-(4-acetyl-1,4-diazepan-1-yl)-N-(5-(4-methoxyphenyl)-1H-pyrazol-3-yl)pentanamide hydrogen chloride], the melting point lay in the range of 132 to 133 °C. Besides, the “Hygroscopicity of the sample” value in data set [2] is “extreme hygroscopicity”.
On to `COc1ccc(-c2cc(NC(=O)CCCCN3CCCN(C(C)=O)CC3)[nH]n2)cc1` (as salt: hydrochloric acid salt) [5-(4-Acetyl-[1,4]diazepan-1-yl)-pentanoic acid [5-(4-methoxy-phenyl)-2H-pyrazol-3-yl]-amide], for which the melting point was found to be 185 °C.
With `COc1ccc(-c2cc(NC(=O)CCCCN3CCCN(C(C)=O)CC3)[nH]n2)cc1` [Form I, 5-(4-acetyl-1,4-diazepan-1-yl)-N-(5-(4-methoxyphenyl)-1H-pyrazol-3-yl)pentanamide hydrochloric salt Form I], in data set [1], the “Behaviour of absorbed water on decreasing RH” value was “loses it without significant hysteresis on decreasing RH; also recorded: loses the water as RH decreases”, the “Evidence of a hydrochloride hydrate after the hygroscopicity test” value is “not observed” and the “Hygroscopicity (in words)” value is “relatively non-hygroscopic”. Besides, in data set [1] (70-100% RH), the Moisture gained entry is reported as “at least 2%”. Further, in data set [1] (DVS at 25-26° C.), the Water absorbed eventually entry is given as “up to 2%” and the “Relative humidity (RH) at which the form picks up moisture” value is recorded as “about 50%”. Further, in data set [1] (RH less than or equal to 70%), the “Moisture gained when equilibrated” value is “about 0.5%”. Further, the “Hygroscopicity (in words), Crystal Form Table” value in data set [1] (listed as Crystal Form I) is given as “Non-hygroscopic”.
Take `COc1ccc(-c2cc(NC(=O)CCCCN3CCCN(C(C)=O)CC3)[nH]n2)cc1` [Crystal Form V, 5-(4-Acetyl-[1,4]diazepan-1-yl)-pentanoic acid [5-(4-methoxy-phenyl)-2H-pyrazol-3-yl]-amide]: in data set [1], the “Hygroscopicity (in words), Crystal Form Table” value was “Hygroscopic” and the “Water at RH 50%” value stood at 7%.

For the origin of these results see US20090264648A1, “SYNTHESIS OF PYRAZOLES” (WYETH, priority 2008, published 2009).
